Where two headings read alike, the source gives them in different places.
What was measured:
HIV-1 NL4-3 = assay: Anti-HIV assay: HIV-1 NL4-3 replication in MT4 cells, p24 ELISA; assay type: cell-based
[1] = Cytotoxicity to MT4 cells, CellTiter-Glo Luminescent Cell Viability Assay; assay type: cell-based; settings: human
[2] = read-out: anti-HIV (NL4-3) EC90, concentration that inhibited HIV-1 replication by 90%, MT4 cells, 4-day post infection, p24 ELISA
[3] = Human immunodeficiency virus 1, NL43, MT4, 96 h, read-out: anti-HIV (NL4-3) EC90

## C=C(C)[C@]12C[C@@H](COC(=O)c3ccccc3)[C@]34OC5(CCCCCCC[C@H](C)[C@@H]6[C@@H]3[C@]3(O[C@]6(C)OC3=O)[C@H](O)[C@@]3(CO)O[C@H]3[C@H]4[C@H]1O5)O2 [Compound 6, Stelleralide C]
HIV-1 NL4-3; [2]
  EC90: 91 nM

## C=C(C)[C@]12C[C@@H](C)[C@@]34OC5(CCCCCCC[C@H](C)[C@H]6[C@H](C)[C@H](OC(=O)c7ccccc7)[C@@](O)([C@H](O)[C@@]7(CO)O[C@H]7[C@H]3[C@H]1O5)[C@@H]64)O2 [Compound 2, pimelea factor P2]
HIV-1 NL4-3; [3]
  EC90: 1.4 nM
[1]
  IC50: 3200 nM

## C=C(C)[C@]12C[C@@H](COC(C)=O)[C@@]34O[C@]5(O[C@@H]1[C@@H]3[C@@H]1O[C@]1(CO)[C@@H](O)[C@@]1(O)[C@H]4[C@H]([C@H](C)[C@@H]1OC(=O)c1ccccc1)[C@H](C)CCCCCC[C@H]5O)O2 [Compound 4, Stelleralide A]
HIV-1 NL4-3; [2]
  EC90: 0.4 nM

## C=C(C)[C@]12C[C@@H](C)[C@@]34O[C@](CCCCCCCCC)(O[C@@H]1[C@@H]3[C@@H]1O[C@]1(CO)[C@@H](O)[C@]1(O)C(=O)C(C)=C[C@H]14)O2 [Compound 7, simplexin]
HIV-1 NL4-3; [3]
  EC90: 8 nM
[1]
  IC50: 22500 nM

## C=C(C)[C@@]12C[C@@H](COC(=O)c3ccccc3)[C@@]34OC5(O[C@@H]1[C@@H]3[C@@H]1O[C@]1(CO)[C@@H](O)[C@@]1(O)[C@H]4[C@H]([C@H](C)[C@@H]1OC(=O)c1ccccc1)[C@H](C)CCCCCC[C@H]5O)O2 [Compound 1, gnidimacrin]
HIV-1 NL4-3; [3]
  EC90: 0.41 nM
HIV-1 NL4-3; Human immunodeficiency virus 1, NL43, MT4, read-out: anti-HIV EC90
  EC90: < 1 nM
[1]
  IC50: 2800 nM

## C=C(C)[C@]12C[C@@H](COC(=O)c3ccccc3)[C@@]34OC5(CCCCCCC[C@@H](C)[C@H]6[C@H](C)C(=O)[C@@](O)([C@H](O)[C@@]7(CO)O[C@H]7[C@H]3[C@H]1O5)[C@@H]64)O2 [Compound 3, wikstroelide F]
HIV-1 NL4-3; [2]
  EC90: 1.7 nM

## Stelleralide B [Compound 5]
HIV-1 NL4-3; [2]
  EC90: 1.6 nM

## C=C(C)[C@]12C[C@@H](C)[C@@]34O[C@](/C=C/C=C/CCCCCCCCC)(O[C@@H]1[C@@H]3[C@@H]1O[C@]1(CO)[C@@H](O)[C@]1(O)C(=O)C(C)=C[C@H]14)O2 [Compound 8, huratoxin]
HIV-1 NL4-3; [2]
  EC90: 5.8 nM
